Assay results published in publication PMC11346428, “Biophysical and structural analyses of the interaction between the SHANK1 PDZ domain and an internal SLiM” (Biochemical Journal, 2024).
Residues, ends and D or L forms follow the SMILES beside them. *: point of attachment. 5FAM = O=C1OC2(c3ccc(O)cc3Oc3cc(O)ccc32)c2ccc(C(=O)*)cc21; Ahx = NCCCCCC(=O)O

Experiments:
[1] = target: T1, SHANK1 PDZ domain (656–762) (Homo sapiens, UniProt Q9Y566); experiment: Fluorescence anisotropy direct titration; assay type: binding; conditions: 50 mM NH4OAc, pH 6.5
T1 construct: Human SHANK1 PDZ domain (656–762) was prepared as described previously; GST (N, cleaved yes); made in house; host or cells: E. coli BL21 Gold (pGEX-6P-2)
T1 sequence (Q9Y566 656-762): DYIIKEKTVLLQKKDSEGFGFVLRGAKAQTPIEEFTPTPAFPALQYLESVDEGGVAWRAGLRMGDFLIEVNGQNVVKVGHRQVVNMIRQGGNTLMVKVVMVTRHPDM
Procedure: Direct titration assays were performed in 384-well plates (Greiner Bio-one). Two hundred micromolars of SHANK1 protein was dialyzed into the assay buffer before use. Twenty microlitres of the assay buffer (50 mM ammonium-acetate, pH 6.5) was first added to each well. Twenty microlitres of the target protein sample was then added to the first column, followed by a two-fold serial dilution over 24 points. Twenty microlitres of 50 nM tracer peptide or 20 µl of the assay buffer was added to the corresponding row wells. The titration was performed in triplicate. […] The P (perpendicular intensity) and S (parallel intensity) channels raw data were obtained. The data processing and formulae are shown in the Supporting Information 2.6.
(§1) . Reversed Phase C18 column, mobile phase A (0.1% TFA in water), mobile phase B
2.6 Equations for data calculation in fluorescent anisotropy direct titration The intensity and anisotropy were calculated by using Equations 1 and 2. The data was fitted to a sigmoidal logistic model to obtain r min and rmax, and the L b was further calculated (Equation 3). Finally, the data was fitted to a nonlinear curve model (Equation 4), to obtain the value of KD.
I = total intensity, r = anisotropy, P = perpendicular intensity, S = parallel intensity, G is an instrument gain factor, L b = fraction ligand bound, λ = Ibound/Iunbound = 1, [FL] = concentration of fluorescent ligand, k = K D and x = [added titrant].
2.7 Equations for data calculation in fluorescent anisotropy competition assays The calculated average anisotropy values and their standard deviation were fitted using a sigmoidal logistic model (Equation 5). y = r = anisotropy, xo = mid-point of the curve between the r max and rmin plateau. […]

[2] = target: T1, SHANK1 PDZ domain (656–762); experiment: Isothermal titration calorimetry (ITC); conditions: 25 mM Tris, pH 7.5, 150 mM NaCl, 25°C; 500 μM peptide injected into 50 μM protein; one-binding site model
Procedure: A Microcal ITC200i instrument (Malvern) was employed to carry out the ITC experiments. Prior to use, SHANK1 protein was dialyzed against 20 mM Tris, 150 mM NaCl, pH 7.5 buffer. […] Sixty microlitres of every test peptide was placed in the syringe to titrate against 350 µl of 50 µM Shank1 protein in the cell. The injection volumes were 2 µl each, injection time 6 s, and a 120 s delay between each injection for 20 injections in total. The titration for peptide into buffer was subtracted from the titration for peptide into protein to account for the heat of peptide dilution. Raw data was processed in the software Microcal Origin 8 and fit to a one-binding site model.

[3] = target: T1, SHANK1 PDZ domain (656–762); experiment: Fluorescence anisotropy competition assay; assay type: binding; conditions: 50 nM tracer, 1 μM SHANK1, 50 mM NH4OAc, pH 6.5, triplicate
Procedure: FA competition assays were also performed in 50 mM NH4OAc, pH 6.5 buffer in 384-well plates. Twenty microlitres of the assay buffer was first added to wells. Twenty microlitres of 5000 µM competitor peptides was added to the first columns, followed by a twofold serial dilution over 16 points. Three micromolars of SHANK1 protein was dialyzed into the assay buffer before use. Twenty microlitres of the SHANK1 protein was added to each well to give a final protein concentration of 1 μM. Twenty microlitres of 50 nM tracer peptides or 20 µl of the assay buffer was added to corresponding row wells. The titration was performed in triplicate. Plates were read immediately with an excitation and emission wavelength of 480 and 535 nm respectively (dichroic mirror 505 nm), and after an hour or after 24 h on the plate reader with the same parameters as described above. The data processing and formulae are shown in the Supporting Information 2.7.
Time (min) Mobile phase A (%) Mobile phase B (%) Flow (mL/min) […]
as §1
2.6 Equations for data calculation in fluorescent anisotropy direct titration The intensity and anisotropy were calculated by using Equations 1 and 2. The data was fitted to a sigmoidal logistic model to obtain r min and rmax, and the L b was further calculated (Equation 3). […]

FAM-Ahx-EESTSFQGP-CONH2 = target: T2, FAM-Ahx-EESTSFQGP-CONH2; experiment: fluorescence anisotropy direct titration
T2 chain: {FAM-Ahx}-EESTSFQGP-NH2

Ac-EESTSFQGP-CONH2 = target: T3, Ac-EESTSFQGP-CONH2; experiment: fluorescence anisotropy competition (tracer FAM-Ahx-EESTSFQGP-CONH2)
T3 chain: Ac-EESTSFQGP-NH2

[4] = 50 nM labelled peptide as tracer, plates read after 24 hr incubation at room temperature, read-out: KD (FA direct titration, Figure S1)

C[C@@H](O)[C@H](NC(=O)[C@H](CO)NC(=O)[C@H](CCC(=O)O)NC(=O)[C@H](CCC(=O)O)NC(=O)CCCCCNC(=O)c1ccc2c(c1)C(=O)OC21c2ccc(O)cc2Oc2cc(O)ccc21)C(=O)N[C@@H](CO)C(=O)N[C@@H](Cc1ccccc1)C(=O)N[C@@H](CCC(N)=O)C(=O)NCC(=O)N1CCC[C@H]1C(N)=O ({5FAM-Ahx}-EESTSFQGP-NH2)
Kd ([1]; FA direct titration of SHANK1 into 50 nM tracer peptide, 25°C, triplicate, read-out: KD): 0.81 ± 0.08 µM

CC[C@H](C)[C@H](NC(=O)[C@H](CC(C)C)NC(=O)[C@H](CCC(=O)O)NC(=O)[C@@H]1CCCN1C(=O)[C@H](Cc1ccccc1)NC(=O)CCCCCNC(=O)c1ccc2c(c1)C(=O)OC21c2ccc(O)cc2Oc2cc(O)ccc21)C(=O)N[C@@H](CCC(N)=O)C(=O)N[C@@H](CC(=O)O)C(=O)N[C@H](C(=O)N[C@@H](CO)C(=O)N[C@H](C(=O)N[C@@H](CO)C(=O)N[C@@H](Cc1ccccc1)C(=O)N[C@@H](CO)C(=O)N[C@H](C(=O)N[C@H](C(=O)N[C@@H](CCCNC(=N)N)C(N)=O)[C@@H](C)O)[C@@H](C)O)[C@@H](C)O)[C@@H](C)O [FAM-Ahx-ARAP31414-1429-CONH2] ({5FAM-Ahx}-FPELIQDTSTSFSTTR-NH2)
Kd [1, 4]: 12.2 ± 8.3 µM

CC(C)[C@H](NC(=O)CNC(=O)[C@H](CCC(N)=O)NC(=O)[C@H](Cc1ccccc1)NC(=O)[C@H](CO)NC(=O)[C@@H](NC(=O)[C@H](CO)NC(=O)[C@H](CCC(=O)O)NC(=O)CCCCCNC(=O)c1ccc2c(c1)C(=O)OC21c2ccc(O)cc2Oc2cc(O)ccc21)[C@@H](C)O)C(=O)N[C@@H](CCCCN)C(=O)N[C@@H](CO)C(=O)NCC(=O)N1CCC[C@H]1C(=O)N[C@H](C(=O)N[C@@H](CO)C(=O)N[C@H](C(=O)N[C@@H](C)C(N)=O)C(C)C)C(C)C [FAM-Ahx-ELFN1579-594-CONH2] ({5FAM-Ahx}-ESTSFQGVKSGPVSVA-NH2)
Kd [1, 4]: 3.6 ± 0.7 µM

Ac-EESTSFQGP-NH2
Kd [2]: 960 nM | IC50 ([3]; competition against SHANK1/FAM-Ahx-EESTSFQGP-CONH2 interaction): 3.9 ± 0.1 µM | IC50 ([3]; competition against SHANK1/FITC-Ahx-EAQTRL-COOH interaction): 3.3 ± 0.2 µM

B1: SHANK1 PDZ domain 656-762 (protein)
chain: T1 sequence (Q9Y566 656-762)
Kd (FAM-Ahx-EESTSFQGP-CONH2): 810 nM | IC50 (Ac-EESTSFQGP-CONH2): 3.9 µM
